# Laboratory results from ChEMBL document CHEMBL1127208, “Centaureidin, a cytotoxic flavone from Polymnia fruticosa, inhibits tubulin polymerization” (Bioorg Med Chem Lett, 1993).
# Legend:
# [1] = biological target: Tubulin alpha chain (Sus scrofa) (UniProt P02550); assay: Tested for the inhibition using the binding of 5 uM [3H]colchicine to purified tubulin at 37 degree Centigrade
# [2] = Tested for the cytotoxicity concentration in CA46 burkitt lymphoma cells; type: functional, cell-based; settings: Homo sapiens
# [3] = biological target: Tubulin alpha chain (Sus scrofa, UniProt P02550); assay: Tested for 50 % inhibition of tubulin polymerization by turbidimetric assay
# Tubulin alpha chain, sequence (P02550 whole entry, looked up): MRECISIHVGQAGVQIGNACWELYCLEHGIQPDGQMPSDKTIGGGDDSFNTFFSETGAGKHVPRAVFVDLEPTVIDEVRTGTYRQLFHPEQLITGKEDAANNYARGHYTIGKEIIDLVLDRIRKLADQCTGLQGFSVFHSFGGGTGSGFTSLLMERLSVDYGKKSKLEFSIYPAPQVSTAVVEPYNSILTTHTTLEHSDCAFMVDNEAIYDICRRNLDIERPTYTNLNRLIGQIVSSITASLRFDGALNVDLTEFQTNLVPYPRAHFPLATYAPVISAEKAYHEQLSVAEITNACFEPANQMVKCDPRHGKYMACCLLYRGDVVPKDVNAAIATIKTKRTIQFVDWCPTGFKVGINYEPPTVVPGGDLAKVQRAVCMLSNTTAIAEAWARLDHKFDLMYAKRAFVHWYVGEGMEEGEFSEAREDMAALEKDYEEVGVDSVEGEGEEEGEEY
# Tubulin alpha chain (Sus scrofa), sequence (P02550 whole entry, looked up): as above
Structure (SMILES),inhibition [1] [%],IC50 [2] [nM],IC50 [3] [nM]
COc1cc([C@@H]2c3cc4c(cc3[C@H](O)[C@H]3COC(=O)[C@H]23)OCO4)cc(OC)c1OC,84,–,–
COc1ccc(-c2oc3cc(O)c(OC)c(O)c3c(=O)c2OC)cc1O [CENTAUREIDIN],–,200,3000
